Where two headings read alike, the source gives them in different places.
How the values were obtained:
Format in all cases: in vivo
Diabrotica balteata = Diabrotica balteata (corn root worm), sprayed maize sprouts; settings: 96 h, read-out: effect in at least one of the two categories (mortality or growth inhibition); for percent effect (mortality or growth inhibition) at 200 ppm: application rate 200 ppm, L2 larvae, 4 days after infestation
Protocol: Diabrotica balteata (Corn Root Worm)
Maize sprouts placed onto an agar layer in 24-well microtiter plates were treated with aqueous test solutions prepared from 10′000 ppm DMSO stock solutions by spraying. After drying, the plates were infested with L2 larvae (6 to 10 per well). The samples were assessed for mortality and growth inhibition in comparison to untreated samples 4 days after infestation.

Euschistus heros = Euschistus heros (neotropical brown stink bug), sprayed soybean leaves; settings: 120 h, read-out: effect in at least one of the two categories (mortality or growth inhibition); for percent effect (mortality or growth inhibition) at 200 ppm: application rate 200 ppm, N2 nymphs, 5 days after infestation
Protocol: Euschistus heros(Neotropical Brown Stink Bug)
Soybean leaves on agar in 24-well microtiter plates were sprayed with aqueous test solutions prepared from 10′000 ppm DMSO stock solutions. After drying the leaves were infested with N2 nymphs. The samples were assessed for mortality and growth inhibition in comparison to untreated samples 5 days after infestation.

Myzus persicae = Myzus persicae (green peach aphid), intrinsic activity; settings: 120 h
Source text: Myzus persicae (Green Peach Aphid). Intrinsic Activity
Test compounds prepared from 10′000 ppm DMSO stock solutions were applied by pipette into 24-well microtiter plates and mixed with sucrose solution. The plates were closed with a stretched Parafilm. A plastic stencil with 24 holes was placed onto the plate and infested pea seedlings were placed directly on the Parafilm. The infested plate was closed with a gel blotting paper and another plastic stencil and then turned upside down. The samples were assessed for mortality 5 days after infestation.

Plutella xylostella = Plutella xylostella (diamond back moth), artificial diet; settings: 120 h, read-out: effect in at least one of the two categories (mortality or growth inhibition); for percent effect (mortality or growth inhibition) at 200 ppm: application rate 200 ppm, L2 larvae, 5 days after infestation
Protocol: Plutella xylostella (Diamond Back Moth)
24-well microtiter plates with artificial diet were treated with aqueous test solutions prepared from 10′000 ppm DMSO stock solutions by pipetting. After drying, the plates were infested with L2 larvae (10 to 15 per well). The samples were assessed for mortality and growth inhibition in comparison to untreated samples 5 days after infestation.

Spodoptera littoralis = Spodoptera littoralis (Egyptian cotton leaf worm), cotton leaf discs; settings: foliar, 72 h, read-out: control (mortality, anti-feedant effect or growth inhibition)
Protocol: Spodoptera littoralis (Egyptian Cotton Leaf Worm)
Cotton leaf discs were placed onto agar in 24-well microtiter plates and sprayed with aqueous test solutions prepared from 10′000 ppm DMSO stock solutions. After drying the leaf discs were infested with five L1 larvae. The samples were assessed for mortality, anti-feeding effect, and growth inhibition in comparison to untreated samples 3 days after infestation. Control of Spodoptera littoralis by a test sample is given when at least one of the categories mortality, anti-feedant effect, and growth inhibition is higher than the untreated sample.

Tetranychus urticae = Tetranychus urticae (two-spotted spider mite), feeding/contact activity; settings: 192 h
Protocol: Tetranychus urticae (Two-Spotted Spider Mite):Feeding/Contact Activity
Bean leaf discs on agar in 24-well microtiter plates were sprayed with aqueous test solutions prepared from 10′000 ppm DMSO stock solutions. After drying the leaf discs were infested with a mite population of mixed ages. The samples were assessed for mortality on mixed population (mobile stages) 8 days after infestation.

Thrips tabaci = Thrips tabaci (onion thrips), feeding/contact activity; settings: 144 h
Protocol: Thrips tabaci (Onion Thrips) Feeding/Contact Activity
Sunflower leaf discs were placed on agar in 24-well microtiter plates and sprayed with aqueous test solutions prepared from 10′000 ppm DMSO stock solutions. After drying the leaf discs were infested with a thrips population of mixed ages. The samples were assessed for mortality 6 days after infestation.

[1] = test rate 12 ppm, 5 days after infestation, read-out: mortality
[2] = application rate 200 ppm, L1 larvae, 3 days after infestation
[3] = application rate 200 ppm, mixed population (mobile stages), 8 days after infestation, read-out: mortality
[4] = application rate 200 ppm, mixed ages, 6 days after infestation, read-out: mortality

Cc1cc(C2=NS[C@@](c3cc(Cl)cc(Cl)c3)(C(F)(F)F)C2)ccc1C(=O)NCC1(C#N)CC1 [Compound A1, N-[(1-cyanocyclopropyl)methy]-4-[(5S)-5-(3,5-dichlorophenyl)-5-(trifluoromethyl)-4H-isothiazol-3-yl]-2-methyl-benzamide]
≥ 80%: percent effect (mortality or growth inhibition) at 200 ppm (Diabrotica balteata) | percent effect (mortality or growth inhibition) at 200 ppm (Euschistus heros) | mortality at 12 ppm (Myzus persicae; [1]) | percent effect (mortality or growth inhibition) at 200 ppm (Plutella xylostella) | percent control (mortality, anti-feedant effect or growth inhibition) at 200 ppm (Spodoptera littoralis; [2]) | mortality at 200 ppm (Tetranychus urticae; [3]) | mortality at 200 ppm (Thrips tabaci; [4])

Cc1cc(C2=COC(c3cc(Cl)cc(Cl)c3)(C(F)(F)F)C2)ccc1C(=O)NCC1(C#N)CC1 (centres unmarked) [Compound A2, N-[(1-cyanocyclopropyl)methyl]-4-[2-(3,5-dichlorophenyl)-2-(trifluoromethyl)-3H-furan-4-yl]-2-methyl-benzamide]
≥ 80%: percent effect (mortality or growth inhibition) at 200 ppm (Diabrotica balteata) | percent effect (mortality or growth inhibition) at 200 ppm (Euschistus heros) | mortality at 12 ppm (Myzus persicae; [1]) | percent effect (mortality or growth inhibition) at 200 ppm (Plutella xylostella) | percent control (mortality, anti-feedant effect or growth inhibition) at 200 ppm (Spodoptera littoralis; [2]) | mortality at 200 ppm (Tetranychus urticae; [3]) | mortality at 200 ppm (Thrips tabaci; [4])

Cc1cc(C2=NO[C@](c3cc(Cl)cc(Cl)c3)(C(F)(F)F)[C@H]2Cl)ccc1C(=O)NCC1(C#N)CC1 [Compound A3, 4-[(4S,5R)-4-chloro-5-(3,5-dichlorophenyl)-5-(trifluoromethyl)-4H-isoxazol-3-yl]-N-[(1-cyanocyclopropyl)methyl]-2-methyl-benzamide]
≥ 80%: percent control (mortality or growth inhibition) at 200 ppm (Diabrotica balteata) | percent control (mortality or growth inhibition) at 200 ppm (Euschistus heros) | mortality at 12 ppm (Myzus persicae) | percent control (mortality or growth inhibition) at 200 ppm (Plutella xylostella) | percent control (mortality, anti-feedant effect or growth inhibition) at 200 ppm (Spodoptera littoralis) | mortality at 200 ppm (Tetranychus urticae) | mortality at 200 ppm (Thrips tabaci)

Cc1cc(C2=NCC(c3cc(Cl)c(F)c(Cl)c3)(C(F)(F)F)C2)ccc1C(=O)NCC1(C#N)CC1 (centres unmarked) [Compound A4, N-[(1-cyanocyclopropyl)methyl]-4-[3-(3,5-dichloro-4-fluorophenyl)-3-(trifluoromethyl)-2,4-dihydropyrrol-5-yl]-2-methyl-benzamide]
≥ 80%: percent effect (mortality or growth inhibition) at 200 ppm (Diabrotica balteata) | percent effect (mortality or growth inhibition) at 200 ppm (Euschistus heros) | mortality at 12 ppm (Myzus persicae; [1]) | percent effect (mortality or growth inhibition) at 200 ppm (Plutella xylostella) | percent control (mortality, anti-feedant effect or growth inhibition) at 200 ppm (Spodoptera littoralis; [2]) | mortality at 200 ppm (Tetranychus urticae; [3]) | mortality at 200 ppm (Thrips tabaci; [4])

Cc1cc(C2=NCC(c3cc(Cl)c(Cl)c(Cl)c3)(C(F)(F)F)C2)ccc1C(=O)NCC1(C#N)CC1 (centres unmarked) [Compound A5, N-[(1-cyanocyclopropyl)methyl]-2-methyl-4-[3-(3,4,5-trichlorophenyl)-3-(trifluoromethyl)-2,4-dihydropyrrol-5-yl]benzamide]
≥ 80%: percent effect (mortality or growth inhibition) at 200 ppm (Diabrotica balteata) | percent effect (mortality or growth inhibition) at 200 ppm (Euschistus heros) | mortality at 12 ppm (Myzus persicae; [1]) | percent effect (mortality or growth inhibition) at 200 ppm (Plutella xylostella) | percent control (mortality, anti-feedant effect or growth inhibition) at 200 ppm (Spodoptera littoralis; [2]) | mortality at 200 ppm (Tetranychus urticae; [3]) | mortality at 200 ppm (Thrips tabaci; [4])
